This is an account of results in patent US11617740B2, “Chemical inhibitors of Mycobacterium tuberculosis DosRST signaling and persistence” (priority 2017, dated 2023).

Molecules are shown by their SMILES. In brackets after ≈: the same amount, converted by molar mass. Entries after “also recorded” stand apart in the source; their conditions may differ. Where two headings read alike, the source gives them in different places. Bounds are passed on as bounds.

Broadly, the melting point is the temperature, or range, at which the solid turns liquid. As usually defined, the inhibition is the share of the control response that was lost under treatment. Usually solubility stands for the concentration that dissolves in the medium under given conditions. Low values mean little dissolved substance, high ones much dissolved substance. A word on the EC50: it is the concentration that produces a half-maximal response. Broadly, the IC50 is the concentration that inhibits the measured activity by half.

Experiment in data set [1]: not given
This is another data set of the same source.

Data set [2] relates to DosRST signaling, CDC1551 (hspX′::GFP). Put plainly: microbe, parasite or virus in culture. In kind it is cell-based.
Data set [3] has as its system DosR regulated genes dosR, hspX, tgs1. The data set is classed as cell-based. The conditions noted are these: for inhibition of hspX and tgs1 gene expression during hypoxia: 10 μM, real-time PCR; for downregulation of dosR / downregulation of hspX / downregulation of tgs1: 40 μM, 6 d, in vitro. In general terms: In qPCR the cycle at which signal appears reflects the starting amount.

Data set [4] is described as follows: physchem.
Data set [5] relates to DosRST pathway, CDC1551 (hspX′::GFP) reporter strain. Put plainly: microbe, parasite or virus in culture. The conditions noted are these: for EC50: Mycobacterium tuberculosis. In kind it is cell-based.
The test system of data set [6] is Mtb CDC1551. The data set is classed as cell-based. The following applies: for survival relative to DMSO control during NRP: 40 μM, 10 days.
Data set [7] addresses DosS (Mycobacterium tuberculosis, UniProt P9WGK3). The data set is described as follows: DosS autophosphorylation assay. In kind it is biochemical. The conditions noted are these: 10-40 μM; HC103A 40 μM. The procedure: Autophosphorylation assay. The DosS autophosphorylation assay was performed as previously described. DosS protein was treated with 10 μM, 20 μM or 40 μM of HC104A, or HC106A. DMSO and 40 μM HC103A were also included as […].

The test system of data set [8] is DosR-controlled genes hspX and tgs1. The data set is classed as cell-based. The following applies: 40 μM, 48 h, infected macrophages.
For data set [9], the system named is Mtb. In kind it is cell-based, Mycobacterium tuberculosis.
In data set [10] the test system is DosR regulon. In kind it is cell-based. The following applies: WT CDC1551, 40 μM; for genes from dosR regulon inhibited: >2-fold, q<0.05.
The subject of data set [11] is DosR-regulated genes hspX and tgs1. In kind it is cell-based. The following applies: pretreated 24 h; for inhibition of hspX following DETA-NONOate treatment / inhibition of tgs1 following DETA-NONOate treatment: DETA-NONOate 2 h; for inhibition of hspX transcripts following vitamin C treatment / inhibition of tgs1 transcripts following vitamin C treatment: vitamin C 2 h.

In data set [12] the target is DosR (Mycobacterium tuberculosis, UniProt P9WMF9). Put plainly: Electrophoretic mobility shift assay (EMSA), DosR binding of hspX promoter DNA.
The test system of data set [13] is TAG accumulation in Mtb. The data set is classed as cell-based. The following applies: 40 μM, 6 d, vs DMSO treated WT.
For data set [14], the system named is DosR-regulated genes hspX and tgs1. The data set is classed as cell-based. The following applies: 20 μM, 6 d.
Setting [15] is: 144 h, CDC1551 (hspX′::GFP), 6 d, read-out: EC50 of DosRST-dependent GFP fluorescence inhibition (FI).

Sequence of DosS (P9WGK3 whole entry): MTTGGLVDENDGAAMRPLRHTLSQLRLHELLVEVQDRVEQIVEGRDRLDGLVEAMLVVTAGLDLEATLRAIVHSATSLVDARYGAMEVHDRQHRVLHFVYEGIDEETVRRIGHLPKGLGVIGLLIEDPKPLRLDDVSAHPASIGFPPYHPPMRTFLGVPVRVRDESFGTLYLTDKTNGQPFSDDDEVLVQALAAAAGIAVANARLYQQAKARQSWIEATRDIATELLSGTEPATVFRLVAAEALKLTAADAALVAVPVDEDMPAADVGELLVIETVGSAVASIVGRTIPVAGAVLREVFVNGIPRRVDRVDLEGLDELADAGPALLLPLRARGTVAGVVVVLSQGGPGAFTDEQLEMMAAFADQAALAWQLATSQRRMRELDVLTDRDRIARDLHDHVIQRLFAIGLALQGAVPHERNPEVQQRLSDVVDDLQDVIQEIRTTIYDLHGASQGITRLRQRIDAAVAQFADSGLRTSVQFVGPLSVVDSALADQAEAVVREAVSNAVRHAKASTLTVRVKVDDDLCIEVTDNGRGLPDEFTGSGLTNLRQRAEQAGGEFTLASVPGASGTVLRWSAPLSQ
Sequence of DosR (P9WMF9 whole entry, looked up): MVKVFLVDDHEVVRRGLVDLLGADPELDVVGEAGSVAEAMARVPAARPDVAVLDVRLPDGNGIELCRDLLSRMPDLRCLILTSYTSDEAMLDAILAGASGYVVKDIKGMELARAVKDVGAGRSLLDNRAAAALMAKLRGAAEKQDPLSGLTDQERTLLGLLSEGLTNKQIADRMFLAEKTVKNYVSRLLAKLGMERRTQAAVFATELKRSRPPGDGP

With `COC(=O)c1ccc(NC(=O)Nc2ccno2)cc1` [MSU-41465, methyl 4-{[(1,2-oxazol-5-yl)carbamoyl]amino}benzoate], the melting point is 194 °C. For the same molecule, in [1] (microsomes, 0.5 h), the “Microsomes (% remaining @ 30 minutes)” value came to 73 % remaining.

`O=C(Nc1ccc(Br)cc1)Nc1ccno1` [MSU-41464, 1-(4-bromophenyl)-3-(1,2-oxazol-5-yl)urea] came in with a melting point of 183 to 184 °C. Also, in [1] (30 minutes), the “Microsomes (% remaining @ 30 minutes)” value was determined as 109% remaining.

The molecule `C[C@@H]1CC[C@H]2[C@@H](C)C(=O)O[C@@H]3O[C@@]4(C)CC[C@@H]1[C@]32OO4` [artemisinin, reference compound] had an inhibition at 0.5 µM in [2] (Mycobacterium tuberculosis, 500 nM artemisinin alone) of 40%. In addition, in data set [3] (maximum inhibition), the “maximum inhibition of hspX” value was found to be 51 fold and the “maximum inhibition of tgs1” value came to 166 fold.

The molecule `O=C(Nc1ccc(C(F)(F)F)cc1)Nc1ccno1` [MSU-41463, 3-(1,2-oxazol-5-yl)-1-[4-(trifluoromethyl)phenyl]urea] had a melting point of 178 °C. Besides, the “Microsomes (% remaining @ 30 minutes)” value in data set [1] (30 minutes) stood at 84 % remaining.

With `COc1ccc(NC(=O)Nc2ccno2)cc1` [MSU-39447, 1-(4-methoxyphenyl)-3-(1,2-oxazol-5-yl)urea], the melting point lay within 166 to 167 °C. In data set [4], the solubility is greater than 100 µM. For the same molecule, in data set [5] (setting [15]), the EC50 was determined as 0.61 µM.

As for `CN(C)CCCN1C(=O)c2cccc3c(Br)ccc(c23)C1=O` [HC104A], in data set [6], the “survival relative to DMSO control during NRP” value was “no impact on Mtb survival”. Further, the “effect on DosS autophosphorylation” value in data set [7] is listed as “no inhibitory activity; also recorded: inhibitory activity was not observed; also recorded: no effect”. In addition, in data set [3], the “inhibition of hspX and tgs1 gene expression during hypoxia” value is reported as “strongly inhibited”; the “downregulation of dosR” value was determined as 6 fold; the “downregulation of hspX” value came out at 570 fold; the “downregulation of tgs1” value is reported as 13 fold. Also, in [8], the “inhibition of hspX induction” value was found to be 185 fold and the “inhibition of tgs1 induction” value worked out at 10 fold. Also, the “impact on Mtb growth” value in [9] is “minimal impact”. For the same molecule, in data set [10], the “additional genes repressed that were not repressed in CDC1551(ΔdosR)” value was determined as 119 genes and the “genes from dosR regulon inhibited” value is on record as 26 genes. In addition, in data set [11], the “inhibition of hspX following DETA-NONOate treatment” value is listed as 302 fold, the “inhibition of tgs1 following DETA-NONOate treatment” value is recorded as 6.6 fold, the “inhibition of hspX transcripts following vitamin C treatment” value turned out to be 3.4 fold and the “inhibition of tgs1 transcripts following vitamin C treatment” value is on record as “no effect”. For the same molecule, in [5] (setting [15]), the EC50 was 9.8 µM. Further, the EC50 in data set [5] (Table 3, HC104 series, whole cell assay, read-out: EC50) was 9.8 µM. Moreover, the “concentration at which inhibition of DosR DNA binding begins” value in data set [12] (2 μM DosR, doses 1-80 μM) was 10 µM. Also, in data set [12] (20 μM, 2 μM DosR), the “% free DNA” value was found to be 72%. Also, the “% free DNA” value in [12] (30 μM, 2 μM DosR) worked out at 89%. In data set [12] (40 μM, 2 μM DosR), the “% free DNA” value was determined as 92% and the “inhibition of DosR DNA binding compared to DMSO” value was roughly 22 fold. The “% free DNA” value in data set [12] (60 μM, 2 μM DosR) was determined as 96%. Also, the “% free DNA” value in data set [12] (80 μM, 2 μM DosR (normalised as 100%)) is listed as 100%. The IC50 in data set [12] (preliminary, data not shown, read-out: IC50 for inhibition of DosR-DNA binding) was roughly 10 µM. Further, the “reduction of TAG accumulation” value in data set [13] is listed as roughly 50%.

As to `O=C(Nc1ccno1)Nc1ccc(Cl)cc1Cl` [HC106A], the “survival relative to DMSO control during NRP” value in data set [6] is 50%. The “reduction of survival as compared to DMSO control” value in [6] (hypoxic shift-down model) turned out to be 50%. Moreover, in [14] (pVV16-DosS), the “inhibition of hspX, DosS overexpression” value is given as 23 fold and the “inhibition of tgs1, DosS overexpression” value was 16.5 fold. For the same molecule, in [14] (pVV16 empty vector), the “downregulation of hspX, vector control” value came out at 2331 fold and the “downregulation of tgs1, vector control” value is given as 3470 fold. For the same molecule, the “effect on DosRST signaling alone” value in data set [2] (200 nM HC106A alone) is on record as “no effect on its own”. The “effect on DosS autophosphorylation” value in data set [7] was “no inhibitory activity; also recorded: no effect”. Further, in data set [3], the “inhibition of hspX and tgs1 gene expression during hypoxia” value is recorded as “repressed to undetectable levels”; the “downregulation of dosR” value is 49 fold; the “downregulation of hspX” value worked out at 1360 fold; the “downregulation of tgs1” value is recorded as 1424 fold. Besides, the “inhibition of hspX and tgs1 gene expression during hypoxia” value in [3] (listed as H106A) is reported as “strongly inhibited”. Besides, in data set [8], the “inhibition of hspX induction” value was found to be 6 fold and the “inhibition of tgs1 induction” value is 4 fold. The molecule further returned a solubility in data set [4] of 110 µM (≈ 29.9 µg/mL). Moreover, the “impact on Mtb growth” value in data set [9] is on record as “minimal impact”. Also, in data set [10], the “additional genes repressed that were not repressed in CDC1551(ΔdosR)” value came to 35 genes and the “genes from dosR regulon inhibited” value is on record as 53 genes. In addition, in [11], the “inhibition of hspX following DETA-NONOate treatment” value is reported as 362 fold, the “inhibition of tgs1 following DETA-NONOate treatment” value is 151 fold, the “inhibition of hspX transcripts following vitamin C treatment” value stood at 78 fold and the “inhibition of tgs1 transcripts following vitamin C treatment” value worked out at 14 fold. Besides, in data set [13], the “reduction of TAG accumulation” value was roughly 50%.

Molecule `O=C(Nc1ccc(Cl)cc1)Nc1ccno1` [HC106F, 1-(4-chlorophenyl)-3-(1,2-oxazol-5-yl)urea] returned a melting point of 183 °C. Further, in data set [1] (microsomes, 0.5 h), the “Microsomes (% remaining @ 30 minutes)” value was determined as 115% remaining. For the same molecule, the solubility in data set [4] was greater than 200 µM. For the same molecule, the “fold enhanced activity relative to HC106A” value in [5] is roughly 10 fold. For the same molecule, in data set [5] (whole cell assay), the “fold enhanced activity relative to HC106A” value is recorded as roughly 2 fold.

In the case of `O=C(Nc1cccc(O)c1)c1cccc(NC(=O)c2cccs2)c1` [HC103A, reference compound], in [7], the “effect on DosS autophosphorylation” value is listed as “strongly inhibited”.
